According to patent publication US6878388B1, “Vanadium compounds for treating proliferative cell disorders” (Parker Hughes Institute, priority 2000, dated 2005):

Legend:
[1] = tested on: MCF-7 breast cancer cells; assay: MTT cytotoxicity assay, MCF-7; assay type: cell-based, human; conditions: MCF-7 cells, 48 h incubation, 3 independent experiments, read-out: IC50 (mean ± SE)
Method: Human brain tumor cells lines U87 MG (Cat.# HTB-14), U118 MG (Cat. # HTB-15), U138 (Cat # HTB-16), U373 MG (CAT. # HTB-17), and T98G (Cat. # CRL-1690) and breast cancer cell lines BT-20 (Cat # HTB-19), MDA-MB-231 (Cat # HTB-26), MDA-MB-361 (Cat # HTB-27), and MCF-7 (Cat # HTB-22) were obtained from American Type Culture Collection (ATCC, Rockville, Md.) and maintained as continuous cell lines in Dulbecco's modified Eagles's medium (U87, U118, U138, U373, T98 and BT-20) or Leibovitz's L-15 medium (MDA-MB-231 and MDA-MB-361). All media were supplemented with 10% fetal calf serum (FCS), 4 mM glutamine, 100 U/ml penicillin G and […] streptomycin sulfate. All tissue culture reagents were obtained from Life Technologies Inc. (GIBCO-BRL, Gaithersburg, Md.).
The cytotoxicity of [VO(SO4)(Me2-Phen)2] against human cancer cell lines was analyzed using the MTT (3-[4,5-dimethylthiazol-2-yl]-2,5-diphenyl tetrazolium bromide) assay (Boehringer Mannheim Corp., Indianapolis, Ind.) as described previously (Narla et al., Clin Cancer Res., 4: 1405-1414, 1998). […] The absorbance at 540 nm (a reference wavelength of 690 nm was used) of the solution in each well was measured using a microplate reader (Labsystems). The percent survival and the IC50 values were calculated using Graphpad Prism v2.0 (Graphpad Software, Inc., San Diego, Calif.) as described previously (Narla et al., Supra). […]

[2] = tested on: U87 glioblastoma cells; assay: In situ detection of apoptosis (TdT-mediated dUTP nick-end labeling), U87; assay type: cell-based, human; conditions: dUTP-FITC labeling, read-out: apoptotic EC50
Method: Apoptosis was detected using an in situ cell death detection kit (Boehringer Mannheim Corp., Indianapolis, Ind.) as described previously (Albini et al., J. Cell Biol., 105: 1867-1872, 1987; Huang et al., J Biol Chem., 272: 2927-2935, 1997). Cells were incubated with [VO(SO4)(Me2-Phen)2] for 48 hours at 37° C., fixed, permeabilized, incubated with the reaction mixture containing terminal deoxynucleotidyl transferase (TdT) and fluorescein isothiocyanate (FITC)-conjugated dUTP and counterstained with propidium iodide. Cells were transferred to slides and viewed with confocal laser scanning microscope (Bio-Rad MRC 1024) mounted on a Nikon Eclipse E800 series upright microscope as previously reported (Narla et al., Supra).
Administration of [VO(SO4)(Me2-Phen)2] to cells induced apoptotic or programmed cell death as determined using the TdT-mediated dUTP nick-end labeling of exposed 3′-OH termini of DNA with dUTP-FITC.

[3] = tested on: MDA-MB-231 breast cancer xenografts; assay: SCID mouse xenograft model of human breast cancer; assay type: in vivo, SCID mice
Method: FIGS. 1A-1B illustrate the in vivo antitumor activity of the vanadium compound, [VO(SO4)(Me2-Phen)2] against human glioblastoma and breast cancer in SCID mice. The effects of daily treatment with [VO(SO4)(Me2-Phen)2] (10 mg/kg/day) or 5% DMSO in PBS (given five days per week for four weeks beginning the day after inoculation) on tumor growth and progression of glioblastoma (FIG. 1A) and breast cancer (FIG. 1B) are illustrated. Comparisons between groups were done using the log-rank test.
The animal protocols used in this study were approved by the Parker Hughes Institute Institutional Animal Care and Use Committee (IACUC). […]
The right and left hind legs of the SCID mice were inoculated subcutaneously with 1×10^6 U87 human glioblastoma and 1×10^6 MDA-MB-231 beast cancer cells, respectively, in 0.1 mL PBS. […] Mice were monitored daily for health status as well as tumor growth and were sacrificed if they became moribund, developed tumors which impeded their ability to attain food or water, or at the ed of the six-week observation period. Tumors were measured using Vernier calipers three times per week. Tumor volumes were calculated according to the following formula, as described previously (Narla et al., Clin Cancer Res., 4: 1405-14, 1998; Friedman et al., Cancer Res., 55: 2853-2857, 1995): Tumor volume=(Width)^2(Length)/2. […]

In the case of `Cc1ccnc2c1ccc1c(C)ccnc12.Cc1ccnc2c1ccc1c(C)ccnc12.O=S(=O)([O-])[O-].[O]=[V+2]` [[VO(SO4)(Me2-Phen)2], bis(4,7-dimethyl-1,10-phenanthroline) sulfatooxovanadium (IV)], the IC50 [1] is reported as 2.3 ± 0.4 µM, the EC50 [2] is reported as 4.2 ± 0.9 µM and the “average size of tumors” value ([3]; MDA-MB-231, 1.5 months after inoculation, 10 mg/kg i.p., vehicle control 641±98.7, P=0.004) is reported as 286.9±41.5 mm^3. For the same compound, the “mice remaining alive and free of detectable tumors for >19 days” value ([3]; follows the MDA-MB-231 sentence, 10 mg/kg/dose i.p., five days per week for four weeks) was 50%.
